Data reported in article PMC5155509 (ChemMedChem, 2016).
Values after ≈ are worked out from the molar mass of the structure shown. Values joined by “and” are separate entries in the source; they are usually repeats but may differ in a detail not shown here. Equal values may be shown once. Read-outs that look alike come from different tables or passages of the source.

Tests used:
B. subtilis [1] = experiment: B. subtilis growth inhibition assay; assay type: cell-based, Bacillus subtilis; details: 12 hours at 37°C, OD600
[2] = tested on: Staphylococcus aureus and Bacillus subtilis; experiment: Bacterial cell growth inhibition, bacterium not specified at the place; assay type: cell-based
SaUPPS = target: T1, SaUPPS (Staphylococcus aureus, UniProt P60477); experiment: biochemical; assay type: biochemical
T1 sequence (P60477 1-256): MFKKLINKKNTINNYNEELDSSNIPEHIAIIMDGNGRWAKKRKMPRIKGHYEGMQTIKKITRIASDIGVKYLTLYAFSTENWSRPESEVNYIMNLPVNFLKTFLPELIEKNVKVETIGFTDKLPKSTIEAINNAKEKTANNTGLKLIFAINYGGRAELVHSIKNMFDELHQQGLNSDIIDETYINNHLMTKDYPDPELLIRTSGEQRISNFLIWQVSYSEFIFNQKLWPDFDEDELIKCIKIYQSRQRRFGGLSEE

[3] = target: EcUPPP (fusion hybrid of E. coli UPPP with Haloarcula marismortui bacteriorhodopsin) (UniProt P60932+Q5UXY6, D94N); assay type: biochemical; details: read-out: IC50 EcUPPP
S. aureus = experiment: Synergy/antagonism two-drug combination assay, S. aureus; assay type: cell-based, Staphylococcus aureus; details: for FIC antibiotic / FIC Index / Mean FICI / FIC 7: S. aureus; for FIC antibiotic: antibiotic in combination with 7, mean±SD duplicate; for FIC Index: combination of the antibiotic with 7, mean±SD; for MIC: Staphylococcus aureus
B. subtilis [4] = experiment: Synergy/antagonism two-drug combination assay, B. subtilis; assay type: cell-based, Bacillus subtilis; details: for FIC antibiotic / FIC Index / Mean FICI / FIC 7: B. subtilis; for FIC antibiotic: antibiotic in combination with 7, mean±SD duplicate; for FIC Index: combination of the antibiotic with 7, mean±SD; for MIC: Bacillus subtilis
E. coli UPPS (EcUPPS) = details: read-out: IC50 EcUPPS; previous work ref 3b; cited from earlier work
E. coli = details: earlier work of the authors, no reference given; cited from earlier work
B. subtilis [5] = details: earlier work of the authors, no reference given; cited from earlier work
[6] = tested on: S. aureus and B. subtilis; experiment: Synergy/antagonism assays, average over B. subtilis and S. aureus combinations; assay type: cell-based
NCI-H460 cells = experiment: H460 cell toxicity; assay type: cell-based, human; details: 24 h, MTT
[7] = 7 with inhibitors targeting cell wall biosynthesis
[8] = 7 with inhibitors targeting nucleic acids and protein biosynthesis

Chain of EcUPPP (fusion hybrid of E. coli UPPP with Haloarcula marismortui bacteriorhodopsin) (P60932 whole entry, looked up, the tested form may be a part): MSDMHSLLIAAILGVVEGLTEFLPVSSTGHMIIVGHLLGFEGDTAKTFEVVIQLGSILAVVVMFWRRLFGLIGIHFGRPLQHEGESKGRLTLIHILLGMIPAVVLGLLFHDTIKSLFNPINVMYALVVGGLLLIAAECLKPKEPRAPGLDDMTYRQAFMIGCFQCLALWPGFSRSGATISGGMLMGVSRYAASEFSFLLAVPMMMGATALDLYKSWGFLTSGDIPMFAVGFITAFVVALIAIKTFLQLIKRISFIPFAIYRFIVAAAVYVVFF
Chain of EcUPPP (fusion hybrid of E. coli UPPP with Haloarcula marismortui bacteriorhodopsin) (Q5UXY6 whole entry, looked up, stated change not applied, the tested form may be a part): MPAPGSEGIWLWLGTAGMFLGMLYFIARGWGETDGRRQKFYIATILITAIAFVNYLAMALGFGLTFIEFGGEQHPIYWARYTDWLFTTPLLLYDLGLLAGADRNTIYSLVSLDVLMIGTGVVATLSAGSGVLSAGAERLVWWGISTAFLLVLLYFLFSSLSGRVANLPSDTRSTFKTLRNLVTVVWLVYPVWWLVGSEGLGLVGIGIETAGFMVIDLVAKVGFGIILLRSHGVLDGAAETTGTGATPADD

Q: Which “ED50 B. subtilis cell growth” value (B. subtilis [1]) does the source give for “2-(N-Methyl-3-(octyloxy)benzamido)phenylphosphonic acid [Compound 31]” here?
A: >100 µg/mL

Q: What about the “antibacterial activity (in words)” value ([2]; S. aureus and B. subtilis cell growth) of the same compound?
A: little or no antibacterial activity

Q: What about the IC50 (SaUPPS; read-out: IC50 SaUPPS, 5 μM FPP, 50 μM IPP, pH 7.5) of the same compound?
A: 39000 nM

Q: What about the IC50 [3] of the same compound?
A: 6500 nM

Q: With `CC1(C)S[C@@H]2[C@H](NC(=O)[C@H](N)c3ccccc3)C(=O)N2[C@H]1C(=O)O` [Ampicillin, ampicillin] as the compound, how does the FIC antibiotic (S. aureus) read?
A: 0.41 ± 0.17

Q: What about the “FIC Index” value (S. aureus) of the same compound?
A: 0.56 ± 0.18

Q: What about the MIC (S. aureus; 24 h, read-out: MIC antibiotic) of the same compound?
A: 0.5 µg/mL

Q: What about the FIC antibiotic (B. subtilis [4]) of the same compound?
A: 0.30 ± 0.072

Q: What about the “FIC Index” value (B. subtilis [4]) of the same compound?
A: 0.53 ± 0.11

Q: What about the MIC (B. subtilis [4]; 24 h, read-out: MIC antibiotic) of the same compound?
A: 0.5 µg/mL

Q: What does the source list for `CC1(C)S[C@@H]2[C@H](NC(=O)C(C(=O)O)c3ccccc3)C(=O)N2[C@H]1C(=O)O` (some centres unmarked) [Carbenicillin, carbenicillin]?
A: FIC antibiotic (S. aureus): 0.23 ± 0.048; FIC Index (S. aureus): 0.30 ± 0.055; MIC (S. aureus; 24 h, read-out: MIC antibiotic): 15 µg/mL; FIC antibiotic (B. subtilis [4]): 0.22 ± 0.073; FIC Index (B. subtilis [4]): 0.37 ± 0.10; MIC (B. subtilis [4]; 24 h, read-out: MIC antibiotic): 5 µg/mL

Q: With `CO/N=C(\C(=O)N[C@@H]1C(=O)N2C(C(=O)O)=C(COC(C)=O)CS[C@H]12)c1csc(N)n1` [Cefotaxime, cefotaxime] as the compound, how does the FIC antibiotic (S. aureus) read?
A: 0.18 ± 0.055

Q: What about the “FIC Index” value (S. aureus) of the same compound?
A: 0.27 ± 0.063

Q: What about the MIC (S. aureus; 24 h, read-out: MIC antibiotic) of the same compound?
A: 2 µg/mL

Q: And the FIC antibiotic (B. subtilis [4])?
A: 0.17 ± 0.026

Q: What about the “FIC Index” value (B. subtilis [4]) of the same compound?
A: 0.31 ± 0.085

Q: What about the MIC (B. subtilis [4]; 24 h, read-out: MIC antibiotic) of the same compound?
A: 2.5 µg/mL

Q: What does the source list for `O=C(N[C@H](CO)[C@H](O)c1ccc([N+](=O)[O-])cc1)C(Cl)Cl` [Chloramphenicol, chloramphenicol]?
A: FIC antibiotic (S. aureus): 0.88 ± 0.47; FIC Index (S. aureus): 1.69 ± 0.56; MIC (S. aureus; 24 h, read-out: MIC antibiotic): 5 µg/mL; FIC antibiotic (B. subtilis [4]): 0.75 ± 0.18; FIC Index (B. subtilis [4]): 1.72 ± 0.46; MIC (B. subtilis [4]; 24 h, read-out: MIC antibiotic): 0.5 µg/mL

Q: Which IC50 (E. coli UPPS (EcUPPS)) does the source give for `CCCCCCCCCCOc1cccc(C(=O)Nc2ccc([N+](=O)[O-])cc2C(=O)O)c1` [Compound 6, 2-(3-(decyloxy)benzamido)-5-nitrobenzoic acid] here?
A: 3000 nM

Q: And the “activity against E. coli (in words)” value (E. coli)?
A: no activity

Q: What about the “ED50 against B. subtilis” value (B. subtilis [5]) of the same compound?
A: 1300 nM

Q: What does the source list for `CCCCCCCCOc1cccc(C(=O)Nc2ccc(F)cc2C(=O)O)c1` [Compound 7, 5-Fluoro-2-(3-(octyloxy)benzamido)benzoic acid]?
A: ED50 B. subtilis cell growth (B. subtilis [1]): 0.14 µg/mL (≈ 0.361 µM); FICI on average ([6]; with known cell wall biosynthesis inhibitors, n=13 cell/inhibitor combinations): ~ 0.35; FICI on average ([6]; with non cell-wall biosynthesis inhibitors, n=12 cell/inhibitor combinations): ~ 1.45; ED50 bacterial growth ([2]; abstract, bacterium not specified): ~ 0.15 μg/mL; Mean FICI (S. aureus; [7]): 0.32 and 0.32 ± 0.12; Mean FICI (S. aureus; [8]): 1.42 and 1.42 ± 0.37; FIC 7 (S. aureus; with Ampicillin): 0.15 ± 0.071; FIC 7 (S. aureus; with Bacitracin): 0.044 ± 0.019; FIC 7 (S. aureus; with Carbenicillin): 0.077 ± 0.026; FIC 7 (S. aureus; with Cefotaxime): 0.084 ± 0.031; FIC 7 (S. aureus; with Chloramphenicol): 0.81 ± 0.31; FIC 7 (S. aureus; with Fosfomycin): 0.091 ± 0.034; FIC 7 (S. aureus; with Kanamycin): 0.83 ± 0.29; FIC 7 (S. aureus; with Spectinomycin): 0.81 ± 0.32; FIC 7 (S. aureus; with Sulfamethoxazole): 0.98 ± 0.37; FIC 7 (S. aureus; with Tetracycline): 0.51 ± 0.24; FIC 7 (S. aureus; with Trimethoprim): 0.57 ± 0.25; FIC 7 (S. aureus; with Vancomycin): 0.15 ± 0.062; MIC (S. aureus; read-out: MIC 7): 1 µg/mL; IC50 (SaUPPS): 320 nM; toxicity against human cell line NCI-H460 (in words) (NCI-H460 cells): low activity; Mean FICI (B. subtilis [4]; [7]): 0.37 and 0.37 ± 0.14; Mean FICI (B. subtilis [4]; [8]): 1.47 and 1.47 ± 0.28; FIC 7 (B. subtilis [4]; with Ampicillin): 0.23 ± 0.084; FIC 7 (B. subtilis [4]; with Bacitracin): 0.36 ± 0.14; FIC 7 (B. subtilis [4]; with Carbenicillin): 0.15 ± 0.071; FIC 7 (B. subtilis [4]; with Cefotaxime): 0.14 ± 0.081; FIC 7 (B. subtilis [4]; with Chloramphenicol): 0.97 ± 0.42; FIC 7 (B. subtilis [4]; with Fosfomycin): 0.063 ± 0.022; FIC 7 (B. subtilis [4]; with Fosmidomycin): 0.13 ± 0.056; FIC 7 (B. subtilis [4]; with Kanamycin): 0.71 ± 0.30; FIC 7 (B. subtilis [4]; with Sulfamethoxazole): 0.94 ± 0.64; FIC 7 (B. subtilis [4]; with Tetracycline): 0.57 ± 0.50; FIC 7 (B. subtilis [4]; with Trimethoprim): 0.85 ± 0.29; FIC 7 (B. subtilis [4]; with Vancomycin): 0.17 ± 0.063; MIC (B. subtilis [4]; read-out: MIC 7): 1 µg/mL

Q: What does the source list for `C[C@@H]1O[C@@H]1P(=O)(O)O` [Fosfomycin, fosfomycin]?
A: FIC antibiotic (S. aureus): 0.20 ± 0.11; MIC (S. aureus; 24 h, read-out: MIC antibiotic): 200 µg/mL; FIC antibiotic (B. subtilis [4]): 0.16 ± 0.15; FIC Index (B. subtilis [4]): 0.22 ± 0.15; MIC (B. subtilis [4]; 24 h, read-out: MIC antibiotic): 200 µg/mL

Q: Which results are given for `O=CN(O)CCCP(=O)(O)O` [Fosmidomycin, fosmidomycin]?
A: FIC antibiotic (B. subtilis [4]): 0.039 ± 0.0053; FIC Index (B. subtilis [4]): 0.17 ± 0.056; FIC Index (B. subtilis [4]; listed as fosmidomycin): 0.17; MIC (B. subtilis [4]; 24 h, read-out: MIC antibiotic): 5 µg/mL

Q: What does the source list for `CN[C@@H]1[C@H](O)[C@H](NC)[C@H]2O[C@@]3(O)C(=O)C[C@@H](C)O[C@H]3O[C@@H]2[C@H]1O` [Spectinomycin, spectinomycin]?
A: FIC antibiotic (S. aureus): 0.75 ± 0.43; FIC Index (S. aureus): 1.56 ± 0.54; MIC (S. aureus; 24 h, read-out: MIC antibiotic): 40 µg/mL

Q: Which FIC antibiotic (S. aureus) does the source give for `Cc1cc(NS(=O)(=O)c2ccc(N)cc2)no1` [Sulfamethoxazole, sulfamethoxazole] here?
A: 0.54 ± 0.13

Q: And the “FIC Index” value (S. aureus)?
A: 1.53 ± 0.39

Q: What about the MIC (S. aureus; 24 h, read-out: MIC antibiotic) of the same compound?
A: 200 µg/mL

Q: And the FIC antibiotic (B. subtilis [4])?
A: 0.78 ± 0.21

Q: What about the “FIC Index” value (B. subtilis [4]) of the same compound?
A: 1.72 ± 0.67

Q: And the “FIC Index” value (B. subtilis [4]; listed as sulfamethoxazole)?
A: 1.72

Q: What about the MIC (B. subtilis [4]; 24 h, read-out: MIC antibiotic) of the same compound?
A: 200 µg/mL

Q: With `CN(C)[C@@H]1C(O)=C(C(N)=O)C(=O)[C@@]2(O)C(O)=C3C(=O)c4c(O)cccc4[C@@](C)(O)[C@H]3C[C@@H]12` [Tetracycline, tetracycline] as the compound, how does the FIC antibiotic (S. aureus) read?
A: 0.24 ± 0.11

Q: What about the “FIC Index” value (S. aureus) of the same compound?
A: 0.75 ± 0.26

Q: And the MIC (S. aureus; 24 h, read-out: MIC antibiotic)?
A: 0.5 µg/mL

Q: And the FIC antibiotic (B. subtilis [4])?
A: 0.48 ± 0.047

Q: And the “FIC Index” value (B. subtilis [4])?
A: 1.04 ± 0.50

Q: And the MIC (B. subtilis [4]; 24 h, read-out: MIC antibiotic)?
A: 5 µg/mL

Q: Which FIC antibiotic (S. aureus) does the source give for `COc1cc(Cc2cnc(N)nc2N)cc(OC)c1OC` [Trimethoprim, trimethoprim] here?
A: 0.69 ± 0.32

Q: What about the “FIC Index” value (S. aureus) of the same compound?
A: 1.26 ± 0.41

Q: And the MIC (S. aureus; 24 h, read-out: MIC antibiotic)?
A: 15 µg/mL

Q: What about the FIC antibiotic (B. subtilis [4]) of the same compound?
A: 0.66 ± 0.13

Q: What about the “FIC Index” value (B. subtilis [4]) of the same compound?
A: 1.51 ± 0.32

Q: What about the MIC (B. subtilis [4]; 24 h, read-out: MIC antibiotic) of the same compound?
A: 0.5 µg/mL

Q: Which results are given for `CN[C@H](CC(C)C)C(=O)N[C@H]1C(=O)N[C@@H](CC(N)=O)C(=O)N[C@H]2C(=O)N[C@H]3C(=O)N[C@H](C(=O)N[C@H](C(=O)O)c4cc(O)cc(O)c4-c4cc3ccc4O)[C@H](O)c3ccc(c(Cl)c3)Oc3cc2cc(c3O[C@@H]2O[C@H](CO)[C@@H](O)[C@H](O)[C@H]2O[C@H]2C[C@](C)(N)[C@H](O)[C@H](C)O2)Oc2ccc(cc2Cl)[C@H]1O` [Vancomycin, vancomycin]?
A: FIC antibiotic (S. aureus): 0.14 ± 0.034; FIC Index (S. aureus): 0.29 ± 0.071; MIC (S. aureus; 24 h, read-out: MIC antibiotic): 1.5 µg/mL; FIC antibiotic (B. subtilis [4]): 0.27 ± 0.24; FIC Index (B. subtilis [4]): 0.44 ± 0.25; MIC (B. subtilis [4]; 24 h, read-out: MIC antibiotic): 0.5 µg/mL
